Values of other authors, collected in patent publication US7442682B2, “Transepithelial delivery of peptides with incretin hormone activities” (Nitto Denko Corporation, priority 2004, dated 2008).

What was measured:
[1] = in vivo
β-cells = settings: insulinotropic effect; read-out: half-maximal effective concentration on β-cells
fasting blood glucose = settings: type 2 diabetes patients, pump infusion for 6 weeks, mainly within first week

Compound	half-life relative to exendin-4 [1]	EC50 (β-cells) [nM]	lowering of fasting blood glucose (fasting blood glucose) [mM]
CCCCCCCCCCCCCCCC(=O)N[C@@H](CCC(=O)NCCCC[C@H](NC(=O)[C@H](C)NC(=O)[C@H](C)NC(=O)[C@H](CCC(N)=O)NC(=O)CNC(=O)[C@H](CCC(=O)O)NC(=O)[C@H](CC(C)C)NC(=O)[C@H](Cc1ccc(O)cc1)NC(=O)[C@H](CO)NC(=O)[C@H](CO)NC(=O)[C@@H](NC(=O)[C@H](CC(=O)O)NC(=O)[C@H](CO)NC(=O)[C@@H](NC(=O)[C@H](Cc1ccccc1)NC(=O)[C@@H](NC(=O)CNC(=O)[C@H](CCC(=O)O)NC(=O)[C@H](C)NC(=O)[C@@H](N)Cc1cnc[nH]1)[C@@H](C)O)[C@@H](C)O)C(C)C)C(=O)N[C@@H](CCC(=O)O)C(=O)N[C@@H](Cc1ccccc1)C(=O)N[C@H](C(=O)N[C@@H](C)C(=O)N[C@@H](Cc1c[nH]c2ccccc12)C(=O)N[C@@H](CC(C)C)C(=O)N[C@H](C(=O)N[C@@H](CCCNC(=N)N)C(=O)NCC(=O)N[C@@H](CCCNC(=N)N)C(=O)NCC(=O)O)C(C)C)[C@@H](C)CC)C(=O)O [Liraglutide]	more than 10 fold	–	–
GLP-1: glucagon-like peptide-1, human incretin hormone	–	0.01	4 to 5
